Source: publication PMC10467532, “Design, synthesis, and biological evaluation of thiazole/thiadiazole carboxamide scaffold-based derivatives as potential c-Met kinase inhibitors for cancer treatment” (Journal of Enzyme Inhibition and Medicinal Chemistry, 2023)

Key:
HUVEC = test: MTT cytotoxicity assay, normal HUVEC cells; conditions: Homo sapiens, 48 h, read-out: IC50 HUVEC
Experimental: (§1) MTT assay was used to determine the cytotoxic activity of target compounds against different cell lines. […] Then, the cells were treated with five doses of test compounds (pre-dissolved in DMSO), and 0.1% DMSO was used as a negative control. […] The results expressed as IC50 were the average of three determinations calculated by using the Bacus Laboratories Incorporated Slide Scanner (Bliss) software.

A549 = test: MTT antiproliferative assay, A549; conditions: Homo sapiens, A549, 48 h, read-out: IC50 A549
Experimental: as §1

MKN-45 = test: MTT antiproliferative assay, MKN-45; conditions: Homo sapiens, MKN-45, 48 h, read-out: IC50 MKN-45
Experimental: as §1

HT-29 = test: MTT antiproliferative assay, HT-29; conditions: Homo sapiens, HT-29, 48 h, read-out: IC50 HT-29
Experimental: as §1

MDA-MB-231 = test: MTT antiproliferative assay, MDA-MB-231; conditions: Homo sapiens, MDA-MB-231, 48 h, read-out: IC50 MDA-MB-231
Experimental: as §1

FHC = test: MTT cytotoxicity assay, normal FHC cells; conditions: Homo sapiens, 48 h, read-out: IC50 FHC
Experimental: as §1

c-Met = biological target: T1, c-Met (Homo sapiens, UniProt P08581); test: In vitro c-Met enzymatic assay (HTRF); type: biochemical; conditions: HTRF assay; mean ± SD, triplicate; read-out: IC50 against c-Met
T1 construct: purchased Invitrogen (Waltham, MA)
T1 sequence (P08581 25-1390): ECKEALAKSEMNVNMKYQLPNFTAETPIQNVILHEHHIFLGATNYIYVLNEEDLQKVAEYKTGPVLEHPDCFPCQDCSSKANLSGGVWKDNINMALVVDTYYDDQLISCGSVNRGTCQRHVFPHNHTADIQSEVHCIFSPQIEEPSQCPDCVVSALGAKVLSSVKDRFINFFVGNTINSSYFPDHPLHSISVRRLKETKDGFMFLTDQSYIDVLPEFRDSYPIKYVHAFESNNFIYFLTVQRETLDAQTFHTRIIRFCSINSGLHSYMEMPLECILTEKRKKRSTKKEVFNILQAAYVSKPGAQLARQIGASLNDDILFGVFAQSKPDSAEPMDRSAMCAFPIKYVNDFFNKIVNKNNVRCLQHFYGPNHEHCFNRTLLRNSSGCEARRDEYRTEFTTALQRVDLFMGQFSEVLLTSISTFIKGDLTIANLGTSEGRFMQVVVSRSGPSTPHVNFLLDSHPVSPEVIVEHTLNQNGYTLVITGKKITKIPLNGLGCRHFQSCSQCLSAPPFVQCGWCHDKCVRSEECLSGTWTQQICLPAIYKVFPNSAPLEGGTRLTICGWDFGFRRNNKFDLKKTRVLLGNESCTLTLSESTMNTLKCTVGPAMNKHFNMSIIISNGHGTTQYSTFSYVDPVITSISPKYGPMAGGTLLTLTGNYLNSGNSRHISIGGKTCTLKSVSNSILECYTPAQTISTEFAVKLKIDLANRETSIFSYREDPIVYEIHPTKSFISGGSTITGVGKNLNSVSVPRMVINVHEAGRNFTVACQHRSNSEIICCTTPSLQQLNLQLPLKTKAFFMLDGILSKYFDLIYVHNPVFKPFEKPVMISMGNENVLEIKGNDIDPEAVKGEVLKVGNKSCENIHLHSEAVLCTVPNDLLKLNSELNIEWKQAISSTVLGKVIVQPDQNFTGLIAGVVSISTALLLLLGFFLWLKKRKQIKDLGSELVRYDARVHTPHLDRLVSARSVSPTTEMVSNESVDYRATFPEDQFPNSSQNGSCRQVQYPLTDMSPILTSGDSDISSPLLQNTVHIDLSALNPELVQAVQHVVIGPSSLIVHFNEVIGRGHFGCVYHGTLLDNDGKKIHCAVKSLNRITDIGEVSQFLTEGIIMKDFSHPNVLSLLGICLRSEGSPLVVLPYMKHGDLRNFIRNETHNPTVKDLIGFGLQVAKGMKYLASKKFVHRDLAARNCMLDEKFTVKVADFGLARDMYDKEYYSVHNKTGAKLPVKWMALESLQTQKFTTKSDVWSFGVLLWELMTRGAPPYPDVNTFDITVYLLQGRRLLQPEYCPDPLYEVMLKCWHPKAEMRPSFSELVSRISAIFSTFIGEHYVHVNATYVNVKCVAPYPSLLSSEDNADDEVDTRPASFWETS
Experimental: Inhibition of target compounds on c-Met kinase activity was measured by using the homogeneous time-resolved fluorescence (HTRF) assay.
The tyrosine kinases inhibitory activities of target compounds were evaluated in 384-well microtiter plates using purified kinases purchased from Invitrogen (Waltham, MA) by homogeneous time-resolved fluorescence (HTRF) assay. The HTRF KinEASE TK kit was performed according to the instructions. After the kinases and test compounds were incubated at 25–30 °C for 5 min, the kinase reactions were initiated by addition of 39 μL of kinase reaction buffer solution and incubated at 25–30 °C for 30 min. The reactions were quenched by addition 10 µL mixed detection solution. […] The inhibition rate (%) was calculated using the following equation: inhibition rate = [(activity of enzyme with tested compound – min)/(max – min)] × 100 (max: the enzyme activity in the presence of enzyme, substrates and cofactors; min: the enzyme activity in the presence of substrates, cofactors and in the absence of enzyme). IC50 value was calculated from the inhibition curve using GraphPad Prism 5.0 software (La Jolla, CA).

Compound | IC50 (HUVEC) [µM] | IC50 (A549) [µM] | IC50 (MKN-45) [µM] | melting point [°C] | IC50 (HT-29) [µM] | IC50 (MDA-MB-231) [µM] | IC50 (FHC) [µM] | IC50 (c-Met) [µM]
O=C(Nc1ccc(Oc2ccnc(Cl)c2)c(F)c1)c1nc(-c2ccc(F)c(F)c2)cs1 [Compound 51al, N-(4-((2-Chloropyridin-4-yl)oxy)-3-fluorophenyl)-4-(3,4-difluorophenyl)thiazole-2-carboxamide] | 6.14 ± 0.75 | 2.26 ± 0.68 | 0.35 ± 0.07 | 170 to 172 | 1.94 ± 0.65 | 5.82 ± 0.73 | 10.2 ± 1.65 | 0.00523 ± 0.00074
O=C(Nc1ccc(Oc2ccnc(Cl)c2Cl)c(F)c1)c1nc(-c2ccc(F)c(F)c2)cs1 [Compound 51an, N-(4-((2,3-Dichloropyridin-4-yl)oxy)-3-fluorophenyl)-4-(3,4-difluorophenyl)thiazole-2-carboxamide] | 4.83 ± 0.69 | 1.32 ± 0.35 | 0.15 ± 0.07 | 156 to 158 | 0.94 ± 0.27 | 4.65 ± 0.93 | 9.54 ± 1.26 | 0.00373 ± 0.00062
COc1cc2nccc(Oc3ccc(NC(=O)c4nc(-c5ccc(F)cc5)ns4)cc3)c2cc1OC [Compound 51b, N-(4-((6,7-Dimethoxyquinolin-4-yl)oxy)phenyl)-3-(4-fluorophenyl)-1,2,4-thiadiazole-5-carboxamide] | > 100 | 22.5 ± 3.15 | 7.89 ± 1.35 | 113 to 115 | 26.5 ± 1.42 | 38.6 ± 4.07 | > 100 | 0.0501 ± 0.00514
COc1cc2nccc(Oc3ccc(NC(=O)c4nnc(-c5ccccc5)s4)cc3)c2cc1OC [Compound 51c, N-(4-((6,7-Dimethoxyquinolin-4-yl)oxy)phenyl)-5-phenyl-1,3,4-thiadiazole-2-carboxamide] | 53.5 ± 4.62 | 20.6 ± 1.96 | 6.94 ± 1.06 | 141 to 143 | 29.3 ± 3.85 | 34.7 ± 2.58 | 71.3 ± 5.25 | 0.0457 ± 0.00388
COc1cc2nccc(Oc3ccc(NC(=O)c4nnc(-c5ccc(F)cc5)s4)cc3)c2cc1OC [Compound 51d, N-(4-((6,7-Dimethoxyquinolin-4-yl)oxy)phenyl)-5-(4-fluorophenyl)-1,3,4-thiadiazole-2-carboxamide] | 52.4 ± 3.85 | 19 ± 2.46 | 6.65 ± 0.94 | 136 to 138 | 24.6 ± 1.87 | 33.6 ± 4.35 | 68.6 ± 4.83 | 0.0415 ± 0.00276
COc1cc2nccc(Oc3ccc(NC(=O)c4nc(-c5ccccc5)cs4)cc3)c2cc1OC [Compound 51e, N-(4-((6,7-Dimethoxyquinolin-4-yl)oxy)phenyl)-4-phenylthiazole-2-carboxamide] | 56.5 ± 4.81 | 16.6 ± 2.16 | 5.86 ± 0.93 | 63 to 65 | 21.8 ± 1.66 | > 50 | 64.5 ± 6.12 | 0.0345 ± 0.00465
COc1cc2nccc(Oc3ccc(NC(=O)c4ncc(-c5ccccc5)s4)cc3)c2cc1OC [Compound 51g, N-(4-((6,7-Dimethoxyquinolin-4-yl)oxy)phenyl)-5-phenylthiazole-2-carboxamide] | 48.4 ± 2.54 | 17.4 ± 2.23 | 6.21 ± 0.85 | 260 to 262 | 23.4 ± 1.58 | 32.8 ± 2.23 | 54.5 ± 3.25 | 0.0394 ± 0.00325
COc1cc2nccc(Oc3ccc(NC(=O)c4ncc(-c5ccc(F)cc5)s4)cc3)c2cc1OC [Compound 51h, N-(4-((6,7-Dimethoxyquinolin-4-yl)oxy)phenyl)-5-(4-fluorophenyl)thiazole-2-carboxamide] | 42.1 ± 4.35 | 16.8 ± 1.58 | 5.97 ± 0.98 | 252 to 254 | 22.7 ± 3.32 | 34.2 ± 2.82 | 50.2 ± 2.89 | 0.0354 ± 0.00503
COc1cc2nccc(Oc3ccc(NC(=O)c4nc(-c5ccccc5)cs4)c(F)c3)c2cc1OC [Compound 51i, N-(4-((6,7-Dimethoxyquinolin-4-yl)oxy)-2-fluorophenyl)-4-phenylthiazole-2-carboxamide] | 44.3 ± 5.64 | 15.6 ± 1.86 | 5.35 ± 0.84 | 112 to 114 | 22.9 ± 2.43 | 35.5 ± 4.62 | 60.2 ± 5.33 | 0.0312 ± 0.00416
COc1cc2nccc(Oc3ccc(NC(=O)c4nc(-c5ccccc5)cs4)cc3F)c2cc1OC [Compound 51j, N-(4-((6,7-Dimethoxyquinolin-4-yl)oxy)-3-fluorophenyl)-4-phenylthiazole-2-carboxamide] | 45.6 ± 5.12 | 13.8 ± 1.76 | 4.58 ± 0.75 | 90 to 92 | 19.6 ± 2.89 | 32.3 ± 2.78 | > 100 | 0.0295 ± 0.00342
COc1cc2nccc(Oc3ccc(NC(=O)c4nc(-c5ccccc5)cs4)c(Cl)c3)c2cc1OC [Compound 51k, N-(2-Chloro-4-((6,7-dimethoxyquinolin-4-yl)oxy)phenyl)-4-phenylthiazole-2-carboxamide] | > 100 | 14.5 ± 1.64 | 6.87 ± 0.86 | 201 to 203 | 23.4 ± 4.32 | 33.3 ± 4.21 | > 100 | 0.033 ± 0.00266
COc1cc2nccc(Oc3ccc(NC(=O)c4nc(-c5ccccc5)cs4)cc3Cl)c2cc1OC [Compound 51l, N-(3-Chloro-4-((6,7-dimethoxyquinolin-4-yl)oxy)phenyl)-4-phenylthiazole-2-carboxamide] | 40.9 ± 2.32 | 13.2 ± 2.41 | 6.23 ± 0.72 | 146 to 148 | 20.9 ± 3.56 | 32.1 ± 2.54 | 51.6 ± 3.96 | 0.0319 ± 0.00451
COc1cc2nccc(Oc3ccc(NC(=O)c4nc(-c5ccccc5)cs4)c(C)c3)c2cc1OC [Compound 51m, N-(4-((6,7-Dimethoxyquinolin-4-yl)oxy)-2-methylphenyl)-4-phenylthiazole-2-carboxamide] | 38.8 ± 3.55 | 14.1 ± 1.87 | 6.43 ± 0.76 | 209 to 211 | 22.3 ± 1.75 | 35.2 ± 4.23 | 49.6 ± 5.04 | 0.0398 ± 0.00547
COc1cc2ncnc(Oc3ccc(NC(=O)c4nc(-c5ccccc5)cs4)cc3F)c2cc1OC [Compound 51o, N-(4-((6,7-Dimethoxyquinazolin-4-yl)oxy)-3-fluorophenyl)-4-phenylthiazole-2-carboxamide] | 36.6 ± 4.23 | 12.2 ± 1.63 | 4.23 ± 0.96 | 115 to 117 | 18.7 ± 3.13 | 29.6 ± 3.54 | 50.3 ± 3.58 | 0.0296 ± 0.00384
COc1cc2ncnc(Oc3ccc(NC(=O)c4nc(-c5ccc(F)cc5)cs4)cc3F)c2cc1OC [Compound 51p, N-(4-((6,7-Dimethoxyquinazolin-4-yl)oxy)-3-fluorophenyl)-4-(4-fluorophenyl)thiazole-2-carboxamide] | 33.6 ± 2.68 | 9.83 ± 1.22 | 3.17 ± 0.84 | 188 to 190 | 15.2 ± 2.26 | 28.1 ± 1.96 | 46.4 ± 6.24 | 0.0247 ± 0.00195
